The source of these data is PMC8770641, “A transcytotic transport mechanism across the tympanic membrane” (Scientific Reports, 2022).

The subject of data set [1] is trans-TM transport of phage expressing peptide TMT-3. Kind of data set: Inhibitor studies: effect on trans-TM transport of phage expressing peptide TMT-3. The settings on record: 1 h, n = 6 ears; for Effect on trans-TM phage transport: NTHi-infected rats; for Reduction of trans-TM transport: ME contents titered. Type of data set: in vivo, Sprague Dawley rats. As to the method:
Figure 5 illustrates the results of inhibitor studies.
The MEs of rats were infected with NTHi as above. 48 h later, the external ears of six anesthetized rats were injected with 50 µl of saline containing 10^10 phage expressing TM-3 peptide and up to four inhibitors. Inhibitors were applied at 5–10 times the published IC50 (see Table 1). For any combination of that affected trans-TM transport, Inhibitors were then tested individually to identify the active agent(s). Inhibitors included bafilomycin A (2 µM), brefeldin A (1 uM), carrageenan (200 mg/ml), chlorpromazine (300 µM), Dynasore (500 µM), Endosidin-2 (1 mM), Exo-1 (200 µM), Filipin (50 µg/ml), genistein (100 µM), N-ethylmaleimide (50 µM), nocodazole (300 µM), PitStop-2 (100 µM), Retro-2 (100 µM) and wortmannin (100 µM). […] Six external ears were injected with 10^9 wild-type (WT) phage without a peptide, as negative controls for phage contamination. After one hour, the external ears were extensive rinsed to remove all phage, the MEs were opened and the contents titered to quantify bacteriophage entry. Six replicates were averaged to get the mean and The standard error was calculated by dividing the standard deviation by the sample size's square root (n = 6).

A further data set relates to tympanic membrane (TM). The settings on record: purified phage applied to the TM of previously infected rats for one hour; ME contents titered; mean of n = 6; cited from earlier work. The text has this: Table 1 Sequences and ME recovery of trans-TM 12-mer peptide phage identified by two screening methods (data from Kurabi et al.[19]). Each purified phage was applied to the TM of previously infected rats for one hour (n = 6), and the ME contents then tittered and the number of phage particles recovered were averaged (mean of n = 6). Phage recovery was grouped into transport categories, which were | column: Mean recovery from ME (PFUs)

Where [2] appears, read: inhibitor 100 µM with TMT-3 phage.
Where [3] appears, read: inhibitor 100 µM with 10^10 TMT-3 phage in 50 µl saline in external ear of NTHi-infected rats (48 h).
Where [4] appears, read: inhibitor 300 µM with TMT-3 phage.

Regarding `CO/C1=C\C(C)=C\[C@@H](C)[C@@H](O)[C@@H](C)C/C(C)=C/C=C/[C@H](OC)[C@@H]([C@@H](C)[C@@H](O)[C@H](C)[C@@]2(O)C[C@@H](O)[C@H](C)[C@@H](C(C)C)O2)OC1=O` [Bafilomycin], the “Effect on trans-TM phage transport” value in data set [1] (inhibitor 2 µM with TMT-3 phage) is “no effect”. As to `O=C(N/N=C/c1ccc(O)c(O)c1)c1cc2ccccc2cc1O` [Dynasore], in data set [1] (inhibitor 500 µM with TMT-3 phage), the “Effect on trans-TM phage transport” value is “no effect”. Consider `COc1cc(/C=N/NC(=O)c2cccc(F)c2)cc(I)c1O` [Endosidin-2], for which the “Reduction of trans-TM transport” value in data set [1] (inhibitor 1 mM with 10^10 TMT-3 phage in 50 µl saline in external ear of NTHi-infected rats (48 h)) is given as ~ 80%. The “Effect on trans-TM phage transport” value in data set [1] (inhibitor 1 mM with TMT-3 phage) is on record as “significantly reduced transport”.

For the compound `COC(=O)c1ccccc1NC(=O)c1ccc(F)cc1` [Exo-1], in data set [1] (inhibitor 200 µM with 10^10 TMT-3 phage in 50 µl saline in external ear of NTHi-infected rats (48 h)), the “Reduction of trans-TM transport” value came to 40%. For the same compound, the “Effect on trans-TM phage transport” value in data set [1] (inhibitor 200 µM with TMT-3 phage) is “significantly reduced transport”. For `CCCCC[C@@H](O)[C@H]1C(=O)O[C@H](C)[C@@H](O)/C=C/C=C/C=C/C=C/C=C(\C)[C@@H](O)C[C@H](O)C[C@H](O)C[C@H](O)C[C@H](O)C[C@H](O)C[C@@H]1O` [Filipin], the “Effect on trans-TM phage transport” value in data set [1] (inhibitor 50 µg/ml with TMT-3 phage) is “no effect”.

Consider `CCN1C(=O)C=CC1=O` [N-ethymaleimide], for which the “Effect on trans-TM phage transport” value in data set [1] (inhibitor 50 µM with TMT-3 phage) is listed as “no effect”. For the compound `O=C1NC(=NS(=O)(=O)c2cccc3ccccc23)S/C1=C\c1ccc(Br)cc1` [Pitstop-2], the “Effect on trans-TM phage transport” value in data set [1] (setting [2]) was “Neither Pitstop-2, as illustrated in Fig. 5, nor chlorpromazine had any effect”. As for `Cc1ccc(C=Nc2ccccc2C(=O)Nc2ccccc2)s1` [Retro-2], the “Reduction of trans-TM transport” value in data set [1] (setting [3]) was “approximately 90%”. Further, the “Effect on trans-TM phage transport” value in data set [1] (setting [2]) is reported as “significantly reduced transport”. Turning to `CN(C)CCCN1c2ccccc2Sc2ccc(Cl)cc21` [chlorpromazine], in data set [1] (setting [4]), the “Effect on trans-TM phage transport” value is given as “Neither Pitstop-2, as illustrated in Fig. 5, nor chlorpromazine had any effect”.

`O=c1c(-c2ccc(O)cc2)coc2cc(O)cc(O)c12` [genistein]: the “Effect on trans-TM phage transport” value in data set [1] (setting [2]) is listed as “no effect”.

With `COC(=O)Nc1nc2ccc(C(=O)c3cccs3)cc2[nH]1` [nocodazole], in data set [1] (setting [4]), the “Effect on trans-TM phage transport” value was “no effect”. On to `COC[C@H]1OC(=O)c2coc3c2[C@@]1(C)C1=C(C3=O)[C@@H]2CCC(=O)[C@@]2(C)C[C@H]1OC(C)=O` [wortmannin], for which the “Reduction of trans-TM transport” value in data set [1] (setting [3]) is given as “approximately 90%”. In addition, the “Effect on trans-TM phage transport” value in data set [1] (setting [2]) is recorded as “significantly reduced transport”. For “ALWPPNLHAWVP [BPT-2, trans-TM 12-mer peptide expressed on M13 bacteriophage, fused through the C-terminus to the pIII protein]”, the “Mean recovery from ME (PFUs)” value in the data set with tympanic membrane (TM) was 210 PFUs.

“DVGAGRWFSDNG [TMT-4, trans-TM 12-mer peptide expressed on M13 bacteriophage, fused through the C-terminus to the pIII protein]”: in the data set on tympanic membrane (TM), the “Mean recovery from ME (PFUs)” value is given as 5430 PFUs. For the compound “SADSTKTTHLTL [TMT-3, trans-TM 12-mer peptide expressed on M13 bacteriophage, fused through the C-terminus to the pIII protein]”, the “Mean recovery from ME (PFUs)” value in the data set on tympanic membrane (TM) is listed as 12,030 PFUs.

For the compound “SDDSRPIAQFAI [TMT-5, trans-TM 12-mer peptide expressed on M13 bacteriophage, fused through the C-terminus to the pIII protein]”, the “Mean recovery from ME (PFUs)” value in the data set with tympanic membrane (TM) was 3017 PFUs. In the case of “SPPGKFLESLRS [TMT-1, trans-TM 12-mer peptide expressed on M13 bacteriophage, fused through the C-terminus to the pIII protein]”, the “Mean recovery from ME (PFUs)” value in the data set on tympanic membrane (TM) is reported as 610 PFUs. Take “TFNPPPPQMPST [BPT-4, trans-TM 12-mer peptide expressed on M13 bacteriophage, fused through the C-terminus to the pIII protein]”: the “Mean recovery from ME (PFUs)” value in the data set with tympanic membrane (TM) is listed as 9040 PFUs. On to “THPSTKVPGTPA [BPT-3, trans-TM 12-mer peptide expressed on M13 bacteriophage, fused through the C-terminus to the pIII protein]”, for which the “Mean recovery from ME (PFUs)” value in the data set on tympanic membrane (TM) was 13,050 PFUs. As for “TLSPKMPGGGYW [TMT-2, trans-TM 12-mer peptide expressed on M13 bacteriophage, fused through the C-terminus to the pIII protein]”, the “Mean recovery from ME (PFUs)” value with tympanic membrane (TM) is reported as 3210 PFUs. Take “TPMVERNYNAAD [BPT-1, trans-TM 12-mer peptide expressed on M13 bacteriophage, fused through the C-terminus to the pIII protein]”: the “Mean recovery from ME (PFUs)” value in the data set on tympanic membrane (TM) is given as 95 PFUs. Take carrageenan: the “Effect on trans-TM phage transport” value in data set [1] (inhibitor 200 mg/ml with TMT-3 phage) is “no effect”.
